Results from patent US20040242485A1, “Compositions and methods for the amelioration of leptin resistance” (priority 2003, published 2004).

Assays:
Type in all cases: in vivo, mouse
[1] = amelioration of leptin resistance (food intake and body weight after leptin) by β3 adrenergic receptor agonist in IR S-2 knockout mice; details: repeated intraperitoneal administration for 2 weeks, then leptin 20 mg/kg intraperitoneally, 12 hours after leptin, FIG. 4
Method: Moreover, as a control, for the case without intraperitoneal administration of leptin, in which 10 ml/kg of body weight of Tragacanth gum was repeatedly administered orally for 2 weeks, or in which 10 ml/kg of body weight of physiological saline solution was repeatedly intraperitoneally administered for 2 weeks instead of CL-316243, the changes in the amount of food intake, and the changes in body weight (%) were measured.

[2] = changes in body weight after intraperitoneal administration of leptin, wild-type mice; details: 8-week wild-type mice; leptin 10 mg/kg of body weight intraperitoneally; 12 hours after administration; FIG. 1
Method: For the case where 10 mg/kg of body weight of leptin was intraperitoneally administered into the 8-week wild-type mouse, followed by food intake, the changes in body weight (%) after 12 hours of administration of leptin were measured. Moreover, (i) for the case where 10 mg/kg of body weight or 50 mg/kg of body weight of leptin was intraperitoneally administered into the 8-week IR S-2 knockout mouse, followed by food intake, the changes in body weight (%) after 12 hours of administration of leptin were measured. Furthermore, as a control, for the case where physiological saline was administered instead of leptin to the 8-week wild-type and IR S-2 knockout mice, the changes in body weight (%) were measured. In FIG. 1, (a) is a result for the case in which the physiological saline was administered; (b) is a result for the case in which […] of body weight of leptin was intraperitoneally administered; and (c) is a result for the case in which […] of body weight of leptin was intraperitoneally administered. In FIG. 1, as well as in other figures, the values are expressed as means±S.E. (n=5−9); **, p<0.01; ***, p<0.001; and “N.S.” not significant. The statistical significances of the differences in body weight, etc. were determined by Student's t test (two-tailed).

[3] = changes in body weight after continuous ventricular administration of leptin, IR S-2 knockout mice; details: continuous ventricular leptin 10 ng/hr, after one week, FIG. 2
Excerpt: (§1) Insulin receptor substrate-2 (IR S-2) knockout mice were produced according to Kubota N. et al., Diabetes, November 2000, 49(11), 1880-9. Then, the IR S-2 gene (shown in the upper portion of FIG. 5) was screened from the mouse genome DNA library, and a targeting vector indicated in the middle of FIG. 5 was produced. The targeting vector was introduced into the TT2 ES cell, and ES cell clone with a recombinant was selected (shown in the lower portion of FIG. 5), which was introduced into the 8-celled embryo, thereby obtaining a chimera organism. A male chimeric organism was bred with a C57BL/6J female, thereby obtaining hetero-IR S-2 knockout mice, in which a recombinant gene has been introduced into the germ line. These hetero-knockout mice were bred with each other, thereby obtaining homo-IR S-2 knockout mice.
(§2) In a case where a canula was implanted ventricuarly to a 14-week wild-type mouse, and after starting the continuous ventricular administration of leptin (10 ng/hr), followed by food intake at will, the changes in body weigh (%) were measured after one week of said leptin administration.

[4] = changes in body weight after continuous ventricular administration of leptin, wild-type mice; details: 14-week wild-type mice; continuous ventricular leptin 10 ng/hr; after one week; FIG. 2
Method: as §2

[5] = changes in body weight after intraperitoneal administration of leptin, IR S-2 knockout mice; details: 8-week IR S-2 knockout mice, 12 hours after administration, FIG. 1
Excerpt: as §1, with “A male chimeric organism was bred with a C57BL/6J female, thereby obtaining hetero-IR S-2 knockout mice, in which a recombinant gene has been introduced into the germ line. These hetero-knockout mice were bred with each other, thereby obtaining homo-IR S-2 knockout mice.” left out
For the case where 10 mg/kg of body weight of leptin was intraperitoneally administered into the 8-week wild-type mouse, followed by food intake, the changes in body weight (%) after 12 hours of administration of leptin were measured. Moreover, (i) for the case where 10 mg/kg of body weight or 50 mg/kg of body weight of leptin was intraperitoneally administered into the 8-week IR S-2 knockout mouse, followed by food intake, the changes in body weight (%) after 12 hours of administration of leptin were measured. Furthermore, as a control, for the case where physiological saline was administered instead of leptin to the 8-week wild-type and IR S-2 knockout mice, the changes in body weight (%) were measured. […] The statistical significances of the differences in body weight, etc. were determined by Student's t test (two-tailed).

Row | Compound | leptin resistance (changes in food intake (%) and body weight (%) after leptin) [1] | changes in body weight (%) [2] | changes in body weight (%) [3] | changes in body weight (%) [4] | changes in body weight (%) ([5]; leptin 10 mg/kg of body weight intraperitoneally) | changes in body weight (%) ([5]; leptin 50 mg/kg of body weight intraperitoneally)
1 | CC(Cc1ccc2c(c1)OC(C(=O)[O-])(C(=O)[O-])O2)NCC(O)c1cccc(Cl)c1.[Na+].[Na+] (stereo not drawn) [CL-316243] | leptin resistance in IR S-2 knockout mice is ameliorated |  |  |  |  | 
2 | leptin: hormone secreted from adipose tissues, regulates appetite and energy metabolism |  | significant reduction in weight was observed | significant reduction in weight was not observed | significant reduction in weight was observed | significant reduction in weight was not observed | significant reduction in weight was not observed
